One assay has as its system Mamu-B*098. The assay is described as follows: Biolayer interferometry binding to β2m-linked Mamu-B*098. Set-up: species or system rhesus macaque. Particulars: Octet RED96; biotinylated β2m-linked Mamu-B*098; lipopeptide 10 μM, 45 min, then 30 min without; 20 mM Tris-HCl pH 7.5, 150 mM NaCl, 2% DMSO; 30 °C; representative of three independent experiments. The source says: (§1) Single-chain MHC proteins in which β2m was linked via a Gly-Ser linker (GGGGSGGSGSGGGSS) to the ectodomain of either Mamu-B*098 or Mamu-A*02, followed by a biotinylation sequence peptide (LHHILDAQKMVWNHR), were also expressed in E. coli and were purified in a similar manner to the trimer complex of Mamu-B*098, β2m and C14nef5. The β2m-linked Mamu-B*098 protein was refolded without C14nef5, whereas the β2m-linked Mamu-A*02 protein was refolded in the presence of the YY9 peptide (YTSGPGIRY). These recombinant proteins (3 mg) were biotinylated by being incubated for 12 h at 20 °C with 2 μg of BirA enzyme (Sigma-Aldrich, St Louis, MO) in a biotinylation buffer containing 100 mM Tris-HCl pH 8.0, 5 mM MgCl2, 4.5 mM ATP and 4 mM D-biotin, and were purified by size-exclusion chromatography.
(§2) The binding of ligands to MHC class I molecules was analysed using the Octet RED96 system equipped with a streptavidin-conjugated biosensor (Pall ForteBio, Menlo Park, CA) according to the manufacturer's instructions. Biotinylated β2m-linked Mamu-B*098 and Mamu-A*02 proteins were immobilized on the sensor tip surface with a signal magnitude of ∼5.0 nm. […] After reference subtraction, binding signals were analysed using the BIAevaluation 3.1 software. […]

Assay [1] has as its system 2N5.1 (LLC-MK2 cells transfected with other rhesus MHC class I genes). The assay is described as follows: Ag presentation by other (non-B*098) Mamu class I LLC-MK2 transfectants to 2N5.1. The format is cell-based, rhesus macaque. To be noted: LLC-MK2 transfected with each rhesus MHC class I cDNA clone, other than Mamu-B*098; IFN-γ; C14nef5. Here is the method: (§3) Figure 1 Identification of Mamu-B*098 as a lipopeptide Ag-presenting molecule. (a) LLC-MK2 cells transfected with each of the rhesus MHC class I genes were tested for their ability to present C14nef5 to 2N5.1. […] PBMCs obtained from a donor with the potential to present C14nef5 to 2N5.1 were used as a positive control. Experiments were performed in triplicate. Mean values with s.e.m. are shown. (b) The binding of lipopeptide Ags to recombinant β2m-linked Mamu-B*098 and Mamu-A*02 proteins was monitored by biolayer interferometry. Representative data from three independent experiments are shown. Mamu-A*02, a rhesus MHC class I allele known to bind 9-mer peptides, was used as a negative control. (c) Plate-coated MHC class I molecules were tested for their ability to present lipopeptide Ags to 2N5.1. The Ag-specific T-cell response was assessed by measuring the amount of IFN-γ released into the culture medium. Mean values with s.e.m. are shown. […] The original data (coloured as indicated) are depicted with the curve fit (grey) overlaid. The steady-state affinity plot (inset) is also shown. Three independent experiments were performed and mean equilibrium-dissociation constant (KD) values ±s.d. are shown. (e) Amino acid sequences of Mamu-B*098, HLA-B*27:09, Mamu-B*17:01 and human CD1a are shown. […] Solid and open triangles indicate paired and unpaired cysteine residues, respectively. […]

The subject of assay [2] is 2N5.1 (Mamu-B*098-transfected LLC-MK2 cells as Ag-presenting cells). Kind of assay: Ag presentation by LLC-MK2 cells transfected with rhesus MHC class I (Mamu) cDNA to 2N5.1. The class given is cell-based, rhesus macaque. Particulars: C14nef5 presented by LLC-MK2 expressing Mamu-B*098; in triplicate, mean with s.e.m. (graph). Here is the method:
as §3

The subject of a further assay is Mamu-A*02. The assay is described as follows: Biolayer interferometry binding to β2m-linked Mamu-A*02. Details: species or system rhesus macaque. To be noted: Octet RED96; biotinylated β2m-linked Mamu-A*02 (refolded with YY9), negative control; lipopeptide 10 μM, 45 min; pH 7.5, 2% DMSO; 30 °C.
Text: as §1, §2

In assay [3] the test system is 2N5.1 (plate-coated Mamu-B*098). The assay is described as follows: T-cell assay with plate-coated Mamu-B*098, IFN-γ release by 2N5.1. The class given is cell-based, rhesus macaque. To be noted: 10 μg MHC protein, 1 μg lipopeptide loaded overnight 37 °C; 5 × 10^4 T cells per well, 24 h; IFN-γ ELISA.
Text: as §1
Streptavidin-coated 96-well plates (Thermo Scientific, Hudson, NH) were overlaid with 10 μg of the biotinylated β2m-linked Mamu-B*098 and Mamu-A*02 proteins, and lipopeptide Ags (1 μg) were loaded by an overnight incubation at 37 °C. The wells were then washed extensively and T cells (5 × 10^4 per well) were added. After a 24-h incubation at 37 °C, aliquots of the culture supernatants were collected and the amount of IFN-γ released into the medium was measured by a human/monkey IFN-γ enzyme-linked immunosorbent assay kit (Mabtech, Nacka Strand, Sweden).

As for “C14-Gly-Gly-Ala-Ile-Ser [C14nef5, N-myristoylated 5-mer peptide (C14-Gly-Gly-Ala-Ile-Ser; C14nef5) derived from the SIV Nef protein]”, in the assay with Mamu-B*098, the “physical interaction with immobilized Mamu-B*098 (biolayer interferometry)” value is recorded as “demonstrated for Mamu-B*098”. The “Ag presentation capacity of other Mamu class I transfectants” value in assay [1] is recorded as “None of the cell transfectants exhibited the Ag presentation capacity”. Moreover, the “stimulation of 2N5.1 to produce IFN-γ by Mamu-B*098-transfected LLC-MK2 cells” value in assay [2] was “stimulated 2N5.1 cells to produce interferon-γ (IFN-γ)”. Besides, the “physical interaction with immobilized Mamu-A*02 (biolayer interferometry)” value with Mamu-A*02 is “not for the control protein Mamu-A*02”. Besides, the “IFN-γ response of 2N5.1 to plate-coated Mamu-B*098 with lipopeptide Ag” value in assay [3] was “sufficient for stimulating 2N5.1 to produce IFN-γ”.

Source of the values: PMC4735555, “Crystal structure of the N-myristoylated lipopeptide-bound MHC class I complex” (Nature Communications, 2016).
